# Assay results published in patent US9370537B2, “Compositions and methods for reducing inflammation” (Cerule, LLC, priority 2009, dated 2016).
# Assay: Case report: menstrual cramps
# Type: in vivo, human
# Conditions: person, single dose
# Description: The anti-inflammatory effect of the 1117 fraction is evidenced by the following: • 1. A person experienced moderate to severe muscle pain after exercising. The person was in otherwise good health, but would consume four Advil after playing tennis. […] A person in good health and with regular menstruation typically experienced a day during menstruation with moderate to severe menstrual cramps. On one occasion, the painful cramps were so severe that they were not relieved by 1 hour heat or 1000 mg Tylenol. […] The relief happened within 5-10 minutes after consumption, and lasted 8 hours. • 3. A person in good health experienced severe, throbbing muscle pain after a 1-hour session of deep tissue massage. The pain was relieved within 30 minutes after consuming a single dose of 500 mg the 1117 fraction.
smiles,measurement,value
CC(=O)Nc1ccc(O)cc1 [Tylenol],effect on severe menstrual cramps and pain,not relieved
